# Earlier results in patent US8575172B2 (Zysis Limited, priority 2006, dated 2013).
# Where two headings read alike, the source gives them in different places.
# Legend:
# 5-HT2A receptor = 5-HT2A receptor (Homo sapiens, UniProt P28223)
# [1] = single oral dose
# 5-HT1A receptor = target: T1, 5-HT1A receptor (Homo sapiens, UniProt P08908)
# T1 sequence (P08908 1-422): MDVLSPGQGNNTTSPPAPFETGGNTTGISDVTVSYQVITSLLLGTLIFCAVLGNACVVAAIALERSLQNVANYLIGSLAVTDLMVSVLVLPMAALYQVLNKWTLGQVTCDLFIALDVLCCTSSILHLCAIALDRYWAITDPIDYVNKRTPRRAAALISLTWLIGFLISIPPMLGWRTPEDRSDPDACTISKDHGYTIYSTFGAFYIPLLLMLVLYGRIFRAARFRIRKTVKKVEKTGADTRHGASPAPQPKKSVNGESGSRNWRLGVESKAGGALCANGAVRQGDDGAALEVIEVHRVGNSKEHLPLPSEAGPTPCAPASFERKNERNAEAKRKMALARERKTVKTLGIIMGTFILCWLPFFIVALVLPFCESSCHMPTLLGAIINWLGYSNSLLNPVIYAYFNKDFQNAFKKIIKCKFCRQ
# [2] = test system: cholinergic muscarinic receptors
# CYP2D6 = CYP2D6 (Homo sapiens, UniProt P10635)
# [3] = test system: alpha adrenergic receptors
# [4] = CYP2D6 poor vs extensive metabolizers
# Chain of 5-HT2A receptor (P28223 whole entry): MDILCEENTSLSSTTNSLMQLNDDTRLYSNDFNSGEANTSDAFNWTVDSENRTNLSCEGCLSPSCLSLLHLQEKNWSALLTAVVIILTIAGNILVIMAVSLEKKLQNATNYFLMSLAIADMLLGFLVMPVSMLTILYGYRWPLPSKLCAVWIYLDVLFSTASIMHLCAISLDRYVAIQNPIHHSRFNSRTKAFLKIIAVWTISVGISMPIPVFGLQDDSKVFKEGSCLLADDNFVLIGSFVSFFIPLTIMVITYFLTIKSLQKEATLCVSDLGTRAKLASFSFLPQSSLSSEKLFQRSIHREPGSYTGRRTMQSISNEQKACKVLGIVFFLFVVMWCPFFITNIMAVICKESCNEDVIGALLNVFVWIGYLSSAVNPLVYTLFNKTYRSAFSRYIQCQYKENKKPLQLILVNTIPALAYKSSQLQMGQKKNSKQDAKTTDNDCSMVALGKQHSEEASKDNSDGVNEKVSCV
# Chain of CYP2D6 (P10635 whole entry): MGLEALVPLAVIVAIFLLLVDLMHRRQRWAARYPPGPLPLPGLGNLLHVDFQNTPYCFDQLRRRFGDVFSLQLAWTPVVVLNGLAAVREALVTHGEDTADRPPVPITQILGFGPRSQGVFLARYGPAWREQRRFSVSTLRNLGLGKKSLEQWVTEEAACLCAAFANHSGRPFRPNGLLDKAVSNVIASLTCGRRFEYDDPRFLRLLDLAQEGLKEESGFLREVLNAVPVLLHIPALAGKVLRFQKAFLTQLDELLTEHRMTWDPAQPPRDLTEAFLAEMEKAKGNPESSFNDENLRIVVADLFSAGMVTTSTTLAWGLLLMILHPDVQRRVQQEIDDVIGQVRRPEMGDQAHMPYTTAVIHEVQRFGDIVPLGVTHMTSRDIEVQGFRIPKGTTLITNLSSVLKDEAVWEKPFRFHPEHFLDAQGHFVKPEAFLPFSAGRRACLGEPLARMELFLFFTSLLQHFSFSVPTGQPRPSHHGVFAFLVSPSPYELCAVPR
structure (smiles),measurement,setting,value
O=c1ccc2ccc(OCCCCN3CCN(c4cccc(Cl)c4Cl)CC3)cc2[nH]1 [dehydro-aripiprazole],decrease in exposure to the active metabolite in PMs compared to EMs,[4],~30%
same,share of aripiprazole AUC in plasma,at steady state,about 40%
same,mean elimination half-life,in vivo,~94 h
same,share of the parent drug exposure in plasma,in vivo,40%
"O=C1CCc2ccc(OCCCCN3CCN(c4cccc(Cl)c4Cl)CC3)cc2N1 [aripiprazole, 7-[4-[4-(2,3-dichlorophenyl)piperazin-1-yl]butoxy]-3,4-dihydro-1H-quinolin-2-one]",profile at the 5-HT2A receptor,5-HT2A receptor,antagonist
same,oral dose recovered unchanged in the feces,[1],approximately 18%
same,unchanged aripiprazole excreted in the urine,[1],Less than 1%
same,administered radioactivity recovered in the feces,[1]; [14C]-labeled,~55%
same,administered radioactivity recovered in the urine,[1]; [14C]-labeled,approximately 25%
same,activity at the 5-HT1A receptor,5-HT1A receptor,partial agonist
same,mean elimination half-life,CYP2D6 extensive metabolizers (EMs),about 75 hours
same,mean elimination half-life,CYP2D6 poor metabolizers (PMs),~146 h
same,increase in aripiprazole exposure in PMs compared to EMs,[4],~80%
same,absorption,administered orally as the solution,well absorbed
same,absorption,after administration of the IR tablet,well absorbed
same,higher exposure to the total active moieties in PMs compared to EMs,from a given dose of aripiprazole,~60%
same,mean elimination half-life,in vivo,about 75 hours
same,pharmacokinetics at steady state,in vivo,dose-proportional
same,affinity for cholinergic muscarinic receptors,[2],no appreciable affinity
same,effect on the CYP2D6 pathway,CYP2D6,does not inhibit or induce
same,affinity for histamine receptors,histamine receptors,moderate affinity
same,affinity for alpha adrenergic receptors,[3],moderate affinity
